The results in this text go back to patent US8895549B2, “Aminoalcohol substituted 2,3-dihydroimidazo[1,2-c]quinazoline derivatives useful for treating hyper-proliferative disorders and diseases associated with angiogenesis” (Bayer Intellectual Property GmbH, priority 2010, dated 2014).

For orientation: inhibition means the change of the read-out against control, counted positive when it falls. A word on the IC50: it is the concentration at which inhibition is half-maximal.

Test [1] deals with PI3Kα (complex of human p110α and human p85α) (Homo sapiens (Human), UniProt P42336). Briefly: PI3Kα kinase assay (HTRF-based PI3K inhibition assay).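 For all read-outs here: PIP3 product detected by HTRF, reading resonance energy transfer from Europium-labeled anti-GST antibody to Streptavidin-APC, as displacement of biotinylated PIP3 tracer from the GST-PH domain complex.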 The class given is biochemical. The note with it: for inhibition at 0.93 µM: 0.93 μM compound, read-out: PI3K alpha average % Inhibition at 0.93 μM; for IC50: 10 μM ATP, 10 μM PIP2, 20 min at 22° C., read-out: average IC50 in the PI3K alpha biochemical assay. (Time-resolved FRET reads energy transfer from a long-lived donor to a nearby acceptor.)
Description: (§1) Determination of % Inhibition and IC50 Values of Compounds in PI3Kα Kinase Assay
PI3Kα inhibitory activity of compounds of the present invention was quantified employing the HTRF-based PI3K inhibition assay as described below.
(§2) As reagents for the kinase reaction itself and the quantification of the reaction product, the PI3-Kinase HTRF Assay kit from Millipore (#33-017) was used. With this kit the phosphatidylinositol 3,4,5-trisphosphate (PIP3) generated in the kinase reaction is detected by displacement of a biotinylated ligand from an energy transfer complex consisting of a Europium-labeled anti-GST monoclonal antibody, a GST-tagged PH domain, biotinylated PIP3 and Streptavidin-Allophycocyanin (APC).
For the assay 50 nL of a 80-fold concentrated solution of the test compound in DMSO was pipetted into a black low volume 384-well microtiter plate (Greiner Bio-One, Frickenhausen, Germany), 3 μL of a solution of PI3Kα and phosphatidylinositol-4,5-bisphosphate (PIP2, 13.8 μM=> final conc. in 4 μl reaction volume=10 μM) in 1× reaction buffer (exact composition not disclosed by the vendor) were added and the mixture was incubated for 15 min at 22° C. to allow pre-binding of the test compounds to the enzyme before the start of the kinase reaction. The amount of PI3Kα was chosen to have the enzyme reaction in the linear range and depended on the activity of the individual lot, typical concentrations in assay were in the range of 90 ng/mL. Then the kinase reaction was started by the addition of 1 μL of a solution of adenosine triphosphate (ATP, 40 μM=> final conc. in the 4 μL assay volume is 10 μM) in reaction buffer and the resulting mixture was incubated for a reaction time of 20 min at 22° C.
The reaction was stopped by the addition of 1 μL of an stop solution (containing the biotinylated PIP3 used as a tracer), then 1 μL detection mix (containing a Europium-labeled anti-GST monoclonal antibody, a GST-tagged PH domain, and Streptavidin-Allophycocyanin) was added and resulting mixture was incubated 3 h at 22° C. to allow the formation of complexes between the detection reagents and either the PIP3 generated in the kinase reaction, or the biotinylated PIP3 added with the stop solution. Subsequently, the amount of energy transfer complex consisting of a Europium-labeled anti-GST monoclonal antibody, a GST-tagged PH domain, biotinylated PIP3 and Streptavidin-Allophycocyanin (APC) was evaluated by measurement of the resonance energy transfer from the Europium-labeled anti-GST monoclonal antibody to the Streptavidin-Allophycocyanin. Therefore, the fluorescence emissions at 620 nm and 665 nm after excitation at 350 nm were measured using a TR-FRET reader, e.g., a Pherastar (BMG Labtechnologies, Offenburg, Germany) or a Viewlux (Perkin-Elmer). The ratio of the emissions at 665 nm and at 622 nm was taken as the measure for the amount of biotinylated PIP3 bound to the GST-tagged PH domain, which is negatively correlated with the amount of PIP3 generated.

Test [2] deals with PI3Kβ (complex of human p110β and human p85α) (Homo sapiens (Human), UniProt P42338). Briefly: PI3Kβ kinase assay (HTRF-based PI3K inhibition assay).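 For all read-outs here: Kinase-made PIP3 detected by HTRF, displacing biotinylated PIP3 tracer from a complex of Europium anti-GST antibody, GST-fused PH domain and Streptavidin-APC, read as Europium-to-APC energy transfer.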 The class given is biochemical. The note with it: for inhibition at 0.93 µM: 0.93 μM compound, read-out: PI3K beta average % Inhibition at 0.93 μM; for IC50: 10 μM ATP, 10 μM PIP2, 20 min at 22° C., read-out: average IC50 in the PI3K beta biochemical assay; for PI3K beta average IC50/PI3K alpha average IC50: ratio of beta IC50 to alpha IC50.
Description: as §1
PI3Kα inhibitory activity of compounds of the present invention was quantified employing the HTRF based PI3K inhibition assay as described below.
as §2
For the assay 50 nL of a 80-fold concentrated solution of the test compound in DMSO was pipetted into a black low volume 384-well microtiter plate (Greiner Bio-One, Frickenhausen, Germany), 3 μl of a solution of PI3Kβ and phosphatidylinositol-4,5-bisphosphate (PIP2, 13.8 μM=> final conc. in 4 μl reaction volume=10 μM) in 1× reaction buffer (exact composition not disclosed by the vendor) were added and the mixture was incubated for 15 min at 22° C. to allow pre-binding of the test compounds to the enzyme before the start of the kinase reaction. The amount of PI3Kβ was chosen to have the enzyme reaction in the linear range and depended on the activity of the individual lot, typical concentrations in assay were in the range of 120 ng/mL. Then the kinase reaction was started by the addition of 1 μL of a solution of adenosine triphosphate (ATP, 40 μM=> final conc. in the 4 μl assay volume is 10 μM) in reaction buffer and the resulting mixture was incubated for a reaction time of 20 min at 22° C.
The reaction was stopped by the addition of 1 μL of an stop solution (containing the biotinylated PIP3 used as a tracer). Then 1 μL detection mix (containing a Europium-labeled anti-GST monoclonal antibody, a GST-tagged PH domain, and Streptavidin-Allophycocyanin) was added and resulting mixture was incubated for 3 h at 22° C. to allow the formation of complexes between the detection reagents and either the PIP3 generated in the kinase reaction, or the biotinylated PIP3 added with the stop solution. Subsequently the amount of energy transfer complex consisting of a Europium-labeled anti-GST monoclonal antibody, a GST-tagged PH domain, biotinylated PIP3 and Streptavidin-Allophycocyanin (APC) was evaluated by measurement of the resonance energy transfer from the Europium-labeled anti-GST monoclonal antibody to the Streptavidin-Allophycocyanin. Therefore, the fluorescence emissions at 620 nm and 665 nm after excitation at 350 nm were measured using a TR-FRET reader, e.g., a Pherastar (BMG Labtechnologies, Offenburg, Germany) or a Viewlux (Perkin-Elmer). The ratio of the emissions at 665 nm and at 622 nm were taken as the measure for the amount of biotinylated PIP3 bound to the GST-tagged PH domain, which is negatively correlated with the amount of PIP3 generated.

Each structure is given as a SMILES string.

Sequence of PI3Kα (complex of human p110α and human p85α) (P42336 whole entry, the tested form may be a part): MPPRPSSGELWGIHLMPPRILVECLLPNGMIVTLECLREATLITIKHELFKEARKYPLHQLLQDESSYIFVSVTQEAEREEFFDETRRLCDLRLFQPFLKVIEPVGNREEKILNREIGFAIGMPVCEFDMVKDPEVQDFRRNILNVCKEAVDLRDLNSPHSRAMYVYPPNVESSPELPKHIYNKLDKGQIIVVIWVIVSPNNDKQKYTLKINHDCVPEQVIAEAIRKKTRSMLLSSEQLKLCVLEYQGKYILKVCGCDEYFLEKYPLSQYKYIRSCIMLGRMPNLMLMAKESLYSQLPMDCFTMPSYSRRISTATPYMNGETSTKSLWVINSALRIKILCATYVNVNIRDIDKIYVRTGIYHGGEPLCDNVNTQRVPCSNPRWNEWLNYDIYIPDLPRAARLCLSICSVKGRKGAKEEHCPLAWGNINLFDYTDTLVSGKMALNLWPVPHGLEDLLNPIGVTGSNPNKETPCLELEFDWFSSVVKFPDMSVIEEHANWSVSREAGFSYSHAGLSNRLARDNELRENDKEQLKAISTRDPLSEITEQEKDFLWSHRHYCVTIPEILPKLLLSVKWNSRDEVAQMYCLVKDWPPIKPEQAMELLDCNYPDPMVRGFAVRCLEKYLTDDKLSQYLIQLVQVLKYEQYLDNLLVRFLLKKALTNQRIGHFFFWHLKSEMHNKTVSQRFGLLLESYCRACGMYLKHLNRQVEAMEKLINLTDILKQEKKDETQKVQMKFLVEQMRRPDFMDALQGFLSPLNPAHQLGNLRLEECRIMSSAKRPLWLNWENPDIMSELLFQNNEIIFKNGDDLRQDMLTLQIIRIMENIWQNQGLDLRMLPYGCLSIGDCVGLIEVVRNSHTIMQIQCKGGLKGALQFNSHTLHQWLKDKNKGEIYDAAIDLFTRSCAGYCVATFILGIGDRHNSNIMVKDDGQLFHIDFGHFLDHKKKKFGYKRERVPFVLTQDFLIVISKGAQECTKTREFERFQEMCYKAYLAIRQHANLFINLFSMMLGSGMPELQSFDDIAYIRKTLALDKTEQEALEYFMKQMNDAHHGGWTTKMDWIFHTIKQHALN
Sequence of PI3Kα (complex of human p110α and human p85α) (P27986 whole entry partner, the tested form may be a part): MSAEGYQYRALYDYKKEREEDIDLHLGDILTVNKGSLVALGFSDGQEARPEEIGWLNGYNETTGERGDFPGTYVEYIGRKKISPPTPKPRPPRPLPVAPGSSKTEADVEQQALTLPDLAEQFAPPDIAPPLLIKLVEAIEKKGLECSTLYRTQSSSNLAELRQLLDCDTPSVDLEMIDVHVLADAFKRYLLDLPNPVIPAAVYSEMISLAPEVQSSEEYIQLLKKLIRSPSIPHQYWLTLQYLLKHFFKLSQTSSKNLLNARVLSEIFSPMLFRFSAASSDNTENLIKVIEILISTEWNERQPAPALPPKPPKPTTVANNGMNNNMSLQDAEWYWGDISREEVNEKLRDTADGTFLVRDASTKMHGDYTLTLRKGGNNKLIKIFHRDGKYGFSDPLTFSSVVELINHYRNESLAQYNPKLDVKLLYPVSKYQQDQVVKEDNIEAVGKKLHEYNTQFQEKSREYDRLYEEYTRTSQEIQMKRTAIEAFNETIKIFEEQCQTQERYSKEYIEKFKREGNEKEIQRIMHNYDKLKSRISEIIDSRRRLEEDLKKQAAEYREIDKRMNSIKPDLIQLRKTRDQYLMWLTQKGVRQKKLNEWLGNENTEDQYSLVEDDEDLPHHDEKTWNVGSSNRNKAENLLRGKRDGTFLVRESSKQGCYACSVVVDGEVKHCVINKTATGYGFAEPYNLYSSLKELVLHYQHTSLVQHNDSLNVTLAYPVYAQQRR
Sequence of PI3Kβ (complex of human p110β and human p85α) (P42338 whole entry, the tested form may be a part): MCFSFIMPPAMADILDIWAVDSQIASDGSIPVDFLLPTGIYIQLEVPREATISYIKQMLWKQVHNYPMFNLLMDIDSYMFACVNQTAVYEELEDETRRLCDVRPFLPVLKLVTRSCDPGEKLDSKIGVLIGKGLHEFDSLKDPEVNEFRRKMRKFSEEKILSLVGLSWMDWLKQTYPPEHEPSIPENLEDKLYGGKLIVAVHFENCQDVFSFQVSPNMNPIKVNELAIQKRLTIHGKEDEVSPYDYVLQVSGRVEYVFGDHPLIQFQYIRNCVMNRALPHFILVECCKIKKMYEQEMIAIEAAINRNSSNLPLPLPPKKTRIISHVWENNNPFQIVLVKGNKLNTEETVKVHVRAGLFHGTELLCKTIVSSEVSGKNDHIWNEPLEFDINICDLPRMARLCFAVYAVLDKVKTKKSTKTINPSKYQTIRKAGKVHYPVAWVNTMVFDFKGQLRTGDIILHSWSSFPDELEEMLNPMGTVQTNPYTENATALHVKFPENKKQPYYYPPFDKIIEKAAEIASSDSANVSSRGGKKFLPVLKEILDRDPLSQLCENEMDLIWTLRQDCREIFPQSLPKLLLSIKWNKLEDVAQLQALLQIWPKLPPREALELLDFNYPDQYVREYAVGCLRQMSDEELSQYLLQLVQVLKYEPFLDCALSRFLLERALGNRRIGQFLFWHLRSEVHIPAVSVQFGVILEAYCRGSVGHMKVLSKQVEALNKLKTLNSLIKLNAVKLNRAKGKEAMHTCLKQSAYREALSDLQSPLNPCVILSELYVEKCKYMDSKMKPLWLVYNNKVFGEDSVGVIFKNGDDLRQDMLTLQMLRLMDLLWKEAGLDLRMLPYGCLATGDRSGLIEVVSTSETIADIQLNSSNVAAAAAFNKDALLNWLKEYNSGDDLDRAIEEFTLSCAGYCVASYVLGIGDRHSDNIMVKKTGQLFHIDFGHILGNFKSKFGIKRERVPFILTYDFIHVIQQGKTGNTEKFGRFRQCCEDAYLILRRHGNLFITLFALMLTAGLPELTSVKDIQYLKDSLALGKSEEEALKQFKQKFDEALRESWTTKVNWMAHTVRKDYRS
Sequence of PI3Kβ (complex of human p110β and human p85α) (P27986 whole entry partner, the tested form may be a part): as the sequence (P27986 whole entry partner, the tested form may be a part) above

In the case of `COc1c(OC[C@H](O)CN2CCOCC2)ccc2c1N=C(NC(=O)c1sc(N)nc1C)N1CCN=C21` [Example 39, 2-Amino-N-(8-{[(2R)-2-hydroxy-3-(morpholin-4-yl)propyl]oxy}-7-methoxy-2,3-dihydroimidazo[1,2-c]quinazolin-5-yl)-4-methyl-1,3-thiazole-5-carboxamide], in test [1], the inhibition at 0.93 µM stood at 110% and the IC50 was < 10 nM. In addition, in test [2], the inhibition at 0.93 µM was determined as 122%, the IC50 is < 10 nM and the “PI3K beta average IC50/PI3K alpha average IC50” value turned out to be 5.32.

Turning to `COc1c(OC[C@H](O)CN2CCCC2)ccc2c1N=C(NC(=O)c1cnco1)N1CCN=C21` [Example 40, N-(8-{[(2R)-2-Hydroxy-3-(pyrrolidin-1-yl)propyl]oxy}-7-methoxy-2,3-dihydroimidazo[1,2-c]quinazolin-5-yl)-1,3-oxazole-5-carboxamide], in test [1], the inhibition at 0.93 µM stood at 88% and the half-maximal inhibitory concentration (IC50) is > 50 nM. In test [2], the inhibition at 0.93 µM was 72.7% and the IC50 was > 50 nM.

Take `COc1c(OC[C@H](O)CN(C(C)C)C(C)C)ccc2c1N=C(NC(=O)c1cncs1)N1CCN=C21` [Example 41, N-(8-{[(2R)-3-(dipropan-2-ylamino)-2-hydroxypropyl]oxy}-7-methoxy-2,3-dihydroimidazo[1,2-c]quinazolin-5-yl)-1,3-thiazole-5-carboxamide]: in test [1], the inhibition at 0.93 µM was 95.7% and the IC50 was < 10 nM. In addition, in test [2], the inhibition at 0.93 µM amounted to 99.3%, the IC50 is 10 to 50 nM and the “PI3K beta average IC50/PI3K alpha average IC50” value is listed as 5.83.
